Measurements as given in PMC11960843, “Exploration of the tunability of BRD4 degradation by DCAF16 trans-labelling covalent glues” (European journal of medicinal chemistry, 2024).

What was measured:
BRD4 [1] = target: T1, BRD4 (Homo sapiens, UniProt O60885); test: Washout experiment, Western blot of BRD4 degradation in K562 cells; assay type: cell-based; design: an 11 amino acid peptide knock-in tag to a protein-of-interest using CRISPR insertion; endogenous in cells; conditions: K562, 1 μM; for BRD4 degradation after washout compared to no washout (in words): 4 h treatment, 20 h compound-free vs 24 h no washout
Description: This experiment involves cell treatment and incubation with a ‘covalent’ compound, followed by a wash-step where the cells are washed and resuspended in compound-free cell media.
Cells were washed with PBS and lysed in RIPA lysis buffer (Thermo Fisher Scientific) with Halt Protease Inhibitor Cocktail (Thermo Fisher Scientific) and Benzonase (Sigma-Aldrich) for 20 min on ice. […] Membranes were blocked in Intercept (PBS) Blocking Buffer (LI-COR Biosciences) and incubated with primary antibodies overnight at 4 °C. The membranes were then washed in Tris-buffered saline with Tween-20 (TBS-T), incubated for 1 h with secondary IRDye-conjugated antibodies (LI-COR Biosciences) and washed three times in TBS-T for 5 min before near-infrared western blot detection on an Odyssey Imaging System (LI-COR Biosciences).

[2] = GSH stability (glutathione reactivity) assay by LC-MS/MS; assay type: physicochemical; conditions: phosphate buffered saline (PBS) without glutathione, extrapolated from 240 min assay
BRD4BD1 = BRD4BD1 (Homo sapiens, UniProt O60885); test: BRD4 AlphaScreen competition assay (JQ1-biotin displacement), BRD4BD1; assay type: binding; conditions: read-out: IC50 BRD4BD1
BRD4BD2 [3] = target: T2, BRD4BD2 (Homo sapiens, UniProt O60885); test: BRD4 AlphaScreen competition assay (JQ1-biotin displacement), BRD4BD2; assay type: binding; conditions: read-out: IC50 BRD4BD2
BRD4 [4] = target: T1, BRD4; test: Western blot of BRD4 degradation, wild-type K562 cells; assay type: cell-based; design: an 11 amino acid peptide knock-in tag to a protein-of-interest using CRISPR insertion; endogenous in cells; conditions: wild-type K562, 1 μM, 16 h
Description: (§1) Western blotting was used to determine the degradation potencies of the covalent BRD4 degraders.
(§2) Cells were washed with PBS and lysed in RIPA lysis buffer (Thermo Fisher Scientific) with Halt Protease Inhibitor Cocktail (Thermo Fisher Scientific) and Benzonase (Sigma-Aldrich) for 20 min on ice. The insoluble fraction was removed by centrifugation, the protein concentration was quantified using a BCA protein assay kit (Thermo Fisher Scientific), and an equal amount of lysate was run on SDS–PAGE 4–12% Bis–Tris Protein Gels (Thermo Fisher Scientific) and then transferred to nitrocellulose membrane with a XCell II Blot Module Wet Tank Transfer System (Thermo Fisher Scientific). Membranes were blocked in Intercept (PBS) Blocking Buffer (LI-COR Biosciences) and incubated with primary antibodies overnight at 4 °C. The membranes were then washed in Tris-buffered saline with Tween-20 (TBS-T), incubated for 1 h with secondary IRDye-conjugated antibodies (LI-COR Biosciences) and washed three times in TBS-T for 5 min before near-infrared western blot detection on an Odyssey Imaging System (LI-COR Biosciences).

BRD4BD2 [5] = target: T2, BRD4BD2; test: BRD4BD2-eGFP and mCherry flow reporter degradation assay, wild type K562 cells; conditions: for Dmax: K562, read-out: maximal degradation (Dmax/16h) of BRD4BD2, K562 cells, 16 h incubation; for increase in degradation potency in comparison to GNE011: BRD4BD2 reporter, 16 h; for DC50: read-out: DC50 of BRD4BD2 degradation
Description: This assay involves the co-expression of mCherry with BRD4BD1/2 fused to an enhanced green fluorescent protein (eGFP) tag, and the subsequent fluorescence measurement of BRD4BD1/2-eGFP normalized to mCherry as a readout for BRD4BD1/2 degradation. It allows for a quantitative, rapid, and facile screening of several MGDs, in a dose-and time-dependent manner. […] Thus, the BRD4BD2 stability system was used to test all subsequent GNE011 analogs in wild type and DCAF16−/− cells.
One day after infection, reporter cells were selected with puromycin at a concentration of 2 μg/mL.
(§5) K562 cells stably expressing degradation reporter were dosed with DMSO or degraders at various times and concentrations using D300e Digital Dispenser (HP). The fluorescent signal was quantified by flow cytometry (LSRFortessa flow cytometer, BD Biosciences) and analyzed using FlowJo (flow cytometry analysis software, BD Biosciences). The geometric mean of the eGFP and mCherry fluorescent signal for round and mCherry-positive cells was calculated. GFP expression was normalized to mCherry signal and drug treatments were compared to DMSO controls.

[6] = target: T3, BRD4BD2-DCAF16 ternary complex (Homo sapiens, UniProt O60885+Q9NXF7); test: DDB1-DCAF16-BRD4BD2 TR-FRET ternary complex formation assay; assay type: biochemical; conditions: for TR-FRETmax (520 nm/490 nm ratio): 6 h degrader incubation; for incubation time of saturation / maximum TR-FRET signal: measured at 1, 2, 4, 6 and 24 h
T3 construct: E3 ligase to bromodomain 2 (BRD4BD2); His6 (N); StrepII (N); Avi (N); made in house; host or cells: BRD4BD2: E. coli (pET100/D-TOPO)
Description: To determine the relationship between covalent warheads and DCAF16 recruitment to BRD4BD2, we used a time-resolved fluorescence energy transfer (TR-FRET) assay to measure induced BRD4BD2-DCAF16 ternary complex formation (Fig. 3A).
Furthermore, we wanted to determine the kinetics of the BRD4BD2-DCAF16 interaction given its covalent nature. […] Additionally, to understand the relationship between ternary complex formation kinetics and warhead reactivity we measured the depletion of the covalent analogs in the presence of glutathione using MS (Table S2). […] Titrations of compounds to induce the DCAF16-BRD4BD complex were carried out by mixing 100 nM biotinylated BRD4BD2, 500 nM BODIPY-FL labeled DDB1ΔB-DCAF16 variants, and 2 nM terbium-coupled streptavidin (Invitrogen) in an assay buffer containing 50 mM HEPES pH 8.0, 200 mM NaCl, 0.1% Pluronic F-68 solution (Sigma), 0.5% bovine serum albumin (BSA) (w/v) and 1 mM TCEP. […] The TR-FRET signal of each data point was extracted by calculating the 520/490 nm ratio.

glutathione = test: GSH stability (glutathione reactivity) assay by LC-MS/MS; assay type: physicochemical; conditions: PBS containing 5 mM reduced glutathione; PBS + 5 mM GSH; extrapolated from 240 min assay
Description: Furthermore, we wanted to determine the kinetics of the BRD4BD2-DCAF16 interaction given its covalent nature. […] Additionally, to understand the relationship between ternary complex formation kinetics and warhead reactivity we measured the depletion of the covalent analogs in the presence of glutathione using MS (Table S2). […].

BRD4BD2 [7] = target: T2, BRD4BD2; test: BRD4BD2-eGFP and mCherry flow reporter degradation assay, DCAF16 KO K562 cells
Description: In order to investigate the degradation of BRD4 by GNE011 and related analogs, we used a fluorescent stability reporter assay reported previously (Fig. 2A) [17]. This assay involves the co-expression of mCherry with BRD4BD1/2 fused to an enhanced green fluorescent protein (eGFP) tag, and the subsequent fluorescence measurement of BRD4BD1/2-eGFP normalized to mCherry as a readout for BRD4BD1/2 degradation. It allows for a quantitative, rapid, and facile screening of several MGDs, in a dose-and time-dependent manner. […] Thus, the BRD4BD2 stability system was used to test all subsequent GNE011 analogs in wild type and DCAF16−/− cells.
Lentivirus containing sgRNA was transduced to 2 × 10^6 of K562-Cas9 cells at 10% volume ratio by spin infection. FACS sorting was performed to enrich BFP+ cells one week after infection. […] Clonal sgDCAF16-expressing K562-Cas9 cells were isolated after one month of expansion, and the genomic sequences were validated via deep sequencing of PCR amplicons targeting sgDCAF16 cutting sites (MGH CCIB DNA Core Service).
as §5

BRD4 [8] = target: T1, BRD4; test: Western blot of BRD4 degradation, DCAF16 KO K562 cells; assay type: cell-based; design: an 11 amino acid peptide knock-in tag to a protein-of-interest using CRISPR insertion; endogenous in cells; conditions: DCAF16 KO K562, 1 μM, 16 h
Description: as §1, §2

BRD4 [9] = target: T1, BRD4; test: BRD4-HiBiT assay, DCAF16 KO JURKAT cells; assay type: cell-based; design: an 11 amino acid peptide knock-in tag to a protein-of-interest using CRISPR insertion; endogenous in cells; host or cells: JURKAT, HiBiT-edited (wild type or DCAF16 knockout); conditions: 6 h
Description: (§3) Thereafter, we sought to characterize the BRD4 cellular degradation potencies in a dose-dependent manner at a shorter time point to minimize secondary effects. This was performed using the bioluminescent HiBiT-BRD4 assay, which consists of an 11 amino acid peptide knock-in tag to a protein-of-interest using CRISPR insertion. A complementary polypeptide (LgBiT) detects and interacts with all HiBiT tagged proteins, thereby reconstituting a luminescent NanoBiT enzyme, that can be quantified by its bioluminescence. WT and DCAF16 KO JURKAT cell lines expressing the BRD4-HiBiT system were generated to quantify dose-dependent BRD4 degradation after 6 h incubation (Fig. 4C).
(§4) After 6 h, the plates were subjected to Nano-Glo HiBiT Lytic detection system (Promega, #N3040) as described in manufacturer's manual. The assays were performed in biological triplicate. DC50 values were determined using a non-linear regression curve fit in GraphPad PRISM 9.5.1.

BRD4 [10] = target: T1, BRD4; test: BRD4-HiBiT assay, WT JURKAT cells; assay type: cell-based; design: an 11 amino acid peptide knock-in tag to a protein-of-interest using CRISPR insertion; endogenous in cells; host or cells: JURKAT, HiBiT-edited (wild type or DCAF16 knockout); conditions: 6 h; for BRD4 degradation: at <100 nM
Description: as §3, §4

T3 sequence (Q9NXF7 whole entry, other chains not shown): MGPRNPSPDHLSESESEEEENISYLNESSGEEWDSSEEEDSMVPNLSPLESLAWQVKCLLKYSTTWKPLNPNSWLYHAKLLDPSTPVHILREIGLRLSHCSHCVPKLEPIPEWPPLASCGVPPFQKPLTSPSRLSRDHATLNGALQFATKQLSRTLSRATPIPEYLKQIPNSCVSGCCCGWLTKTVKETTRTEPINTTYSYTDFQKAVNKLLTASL

In the case of `Cc1sc2c(c1C)C(c1ccc(C#CCN)cc1)=N[C@@H](CC(=O)OC(C)(C)C)c1nnc(C)n1-2` [GNE011, tert-butyl (S)-2-(4-(4-(3-aminoprop-1-yn-1-yl)phenyl)-2,3,9-trimethyl-6H-thieno[3,2-f][1,2,4]triazolo[4,3-a][1,4]diazepin-6-yl)acetate, reference compound], the “BRD4 degradation after washout compared to no washout (in words)” value (BRD4 [1]) is reported as “nearly a complete rescue”, the half-life [2] is reported as > 12.5 h and the IC50 (BRD4BD1) is reported as 11.2 nM. The IC50 (BRD4BD2 [3]) was 7.79 nM, the “BRD4 degradation by Western blot (in words)” value (BRD4 [4]) was “moderate degradation” and the Dmax (BRD4BD2 [5]) was ~50%. For the same compound, the “maximal degradation (Dmax/16h) of BRD4BD2” value (BRD4BD2 [5]; K562 cells, 16 h incubation) was 49%, the “TR-FRETmax (520 nm/490 nm ratio)” value [6] was 0.18 and the half-life (glutathione) was 11.3 h.

With `C=CC(=O)Nc1ccc(C2=N[C@@H](CC(=O)OC(C)(C)C)c3nnc(C)n3-c3sc(C)c(C)c32)cc1` [MMH1, tert-butyl (S)-2-(4-(4-acrylamidophenyl)-2,3,9-trimethyl-6H-thieno[3,2-f][1,2,4]triazolo[4,3-a][1,4]diazepin-6-yl)acetate] the “BRD4 degradation after washout compared to no washout (in words)” value (BRD4 [1]) was “no or minimal difference”, the “BRD4BD2 degradation activity in DCAF16 knockout cells (in words)” value (BRD4BD2 [7]) was “almost entirely ablated” and the IC50 (BRD4BD1) was 17.7 nM. The IC50 (BRD4BD2 [3]) was 15.5 nM, the “BRD4 degradation by Western blot in DCAF16 KO (in words)” value (BRD4 [8]) was “completely rescued by DCAF16 KO” and the “BRD4 degradation by Western blot (in words)” value (BRD4 [4]) was “nearly complete BRD4 degradation”. For the same compound, the “increase in degradation potency in comparison to GNE011” value (BRD4BD2 [5]; K562 cells) was ~ 3333 fold, the Dmax (BRD4BD2 [5]) was 95% and the DC50 (BRD4BD2 [5]; K562 cells, 16 h incubation) was 0.3 nM. The “TR-FRETmax (520 nm/490 nm ratio)” value [6] was 1.78, the “incubation time of saturation / maximum TR-FRET signal” value [6] was 24 h and the “BRD4 degradation in DCAF16 KO (in words)” value (BRD4 [9]) was “completely rescued by DCAF16 KO”. The half-life (glutathione) was 9.53 h, the “BRD4 degradation (in words)” value (BRD4 [10]) was “noticeable BRD4 degradation” and the BRD4 degradation (BRD4 [10]) was > 90%.

With `C=CS(=O)(=O)Nc1ccc(C2=N[C@@H](CC(=O)OC(C)(C)C)c3nnc(C)n3-c3sc(C)c(C)c32)cc1` [MMH2, tert-butyl (S)-2-(2,3,9-trimethyl-4-(4-(vinylsulfonamido)phenyl)-6H-thieno[3,2-f][1,2,4]triazolo[4,3-a][1,4]diazepin-6-yl)acetate] the “BRD4 degradation after washout compared to no washout (in words)” value (BRD4 [1]) was “no or minimal difference”, the “BRD4BD2 degradation activity in DCAF16 knockout cells (in words)” value (BRD4BD2 [7]) was “almost entirely ablated” and the IC50 (BRD4BD1) was 48.6 nM. For the same compound, the “BRD4 degradation by Western blot in DCAF16 KO (in words)” value (BRD4 [8]) was “completely rescued by DCAF16 KO”, the “BRD4 degradation by Western blot (in words)” value (BRD4 [4]) was “nearly complete BRD4 degradation” and the “increase in degradation potency in comparison to GNE011” value (BRD4BD2 [5]; K562 cells) was ~1000 fold. For the same compound, the Dmax (BRD4BD2 [5]) was 95%, the DC50 (BRD4BD2 [5]; K562 cells, 16 h incubation) was 1 nM and the “TR-FRETmax (520 nm/490 nm ratio)” value [6] was 3.75. The “incubation time of saturation / maximum TR-FRET signal” value [6] was 1 h, the “BRD4 degradation in DCAF16 KO (in words)” value (BRD4 [9]) was “completely rescued by DCAF16 KO” and the half-life (glutathione) was > 12.5 h. For the same compound, the “BRD4 degradation (in words)” value (BRD4 [10]) was “noticeable BRD4 degradation” and the BRD4 degradation (BRD4 [10]) was > 90%.

With `Cc1sc2c(c1C)C(c1ccc(/C=C/C(N)=O)cc1)=N[C@@H](CC(=O)OC(C)(C)C)c1nnc(C)n1-2` [MMH271, tert-butyl (S,E)-2-(4-(4-(3-amino-3-oxoprop-1-en-1-yl)phenyl)-2,3,9-trimethyl-6H-thieno[3,2-f][1,2,4]triazolo[4,3-a][1,4]diazepin-6-yl)acetate] the “BRD4 degradation without washout (in words)” value (BRD4 [1]; 24 h no washout) was “showed BRD4 degradation in 24 h no washout experiments”, the half-life [2] was > 12.5 h and the IC50 (BRD4BD1) was 8.08 nM. The IC50 (BRD4BD2 [3]) was 7.58 nM, the “DCAF16 dependent BRD4BD2 degradation (in words)” value (BRD4BD2 [5]; K562 cells, 16 h incubation) was “almost no DCAF16 dependent BRD4BD2 degradation” and the “TR-FRETmax (520 nm/490 nm ratio)” value [6] was 0.14. The “BRD4BD2-DCAF16 ternary complex formation / DCAF16 recruitment (in words)” value ([6]; time-dependent TR-FRET) was “no significant DCAF16 recruitment” and the half-life (glutathione) was > 12.5 h.
